Source: publication PMC5218480 (PLoS ONE, 2017)

Tested on: MV-4-11 cells
Test: Gene expression microarray analysis (Affymetrix PrimeView) and GSEA
Type: cell-based, human
Parameters: RFU PODN (11730768_x_at) / Fold change /veh PODN (11730768_x_at) / RFU LINC00158 (11744669_a_at) / Fold change /veh LINC00158 (11744669_a_at) / RFU DUSP10 (11751237_a_at) / Fold change /veh DUSP10 (11751237_a_at) / RFU ID3 (11757404_x_at) / Fold change /veh ID3 (11757404_x_at) / RFU PLEKHG5 (11737974_s_at) / Fold change /veh PLEKHG5 (11737974_s_at) / RFU LRRC4B (11730491_at) / Fold change /veh LRRC4B (11730491_at) / RFU GIMAP4 (11747438_a_at) / Fold change /veh GIMAP4 (11747438_a_at) / RFU KRT8 (11758183_x_at) / Fold change /veh KRT8 (11758183_x_at) / RFU CNN1 (11734310_a_at) / Fold change /veh CNN1 (11734310_a_at) / RFU VPS37D (11726825_at) / Fold change /veh VPS37D (11726825_at) / RFU C10orf10 (11716522_x_at) / Fold change /veh C10orf10 (11716522_x_at) / RFU KIR2DL2 /// KIR2DL4 /// KIR2DL5A /// KIR2DL5B /// KIR2DS1 /// KIR2DS2 /// KIR2DS3 /// KIR2DS4 /// KIR3DL3 /// KIR3DL3 /// KIR3DS1 (11738374_at) / Fold change /veh KIR2DL2 /// KIR2DL4 /// KIR2DL5A /// KIR2DL5B /// KIR2DS1 /// KIR2DS2 /// KIR2DS3 /// KIR2DS4 /// KIR3DL3 /// KIR3DL3 /// KIR3DS1 (11738374_at) / RFU C1QL1 (11718748_at) / Fold change /veh C1QL1 (11718748_at) / RFU TMPRSS4 (11747572_a_at) / Fold change /veh TMPRSS4 (11747572_a_at) / RFU HAMP (11756126_x_at) / Fold change /veh HAMP (11756126_x_at) / RFU RNFT2 (11725882_a_at) / Fold change /veh RNFT2 (11725882_a_at) / RFU NR4A2 (11747474_a_at) / Fold change /veh NR4A2 (11747474_a_at) / RFU ABCC12 (11746883_a_at) / Fold change /veh ABCC12 (11746883_a_at) / RFU TMEM136 (11760407_x_at) / Fold change /veh TMEM136 (11760407_x_at) / RFU CLDN22 /// WWC2 (11732394_at) / Fold change /veh CLDN22 /// WWC2 (11732394_at) / RFU HLA-DPB1 (11760878_x_at) / Fold change /veh HLA-DPB1 (11760878_x_at) / RFU SPINT1 (11716480_a_at) / Fold change /veh SPINT1 (11716480_a_at) / RFU GAP43 (11754022_s_at) / Fold change /veh GAP43 (11754022_s_at) / RFU A4GNT (11735810_at) / Fold change /veh A4GNT (11735810_at) / RFU PRB3 (11715151_x_at) / Fold change /veh PRB3 (11715151_x_at) / RFU TUBB4B (11761932_at) / Fold change /veh TUBB4B (11761932_at) / RFU CAPN14 (11732068_a_at) / Fold change /veh CAPN14 (11732068_a_at) / RFU TMCC2 (11721928_a_at) / Fold change /veh TMCC2 (11721928_a_at) / RFU IRGQ (11745062_a_at) / Fold change /veh IRGQ (11745062_a_at) / RFU FAM174B (11720279_a_at) / Fold change /veh FAM174B (11720279_a_at) / RFU TMPRSS4 (11748680_a_at) / Fold change /veh TMPRSS4 (11748680_a_at) / RFU FAM212B (11763350_a_at) / Fold change /veh FAM212B (11763350_a_at) / RFU PLEKHG5 (11743358_a_at) / Fold change /veh PLEKHG5 (11743358_a_at) / RFU ZSCAN30 (11745921_a_at) / Fold change /veh ZSCAN30 (11745921_a_at) / RFU CMKLR1 (11741424_a_at) / Fold change /veh CMKLR1 (11741424_a_at) / RFU LOC101060620 /// MAPK8IP1 (11723275_at) / Fold change /veh LOC101060620 /// MAPK8IP1 (11723275_at) / RFU SPTSSB (11747773_x_at) / Fold change /veh SPTSSB (11747773_x_at) / RFU PRSS12 (11739890_at) / Fold change /veh PRSS12 (11739890_at) / RFU BIN1 (11741810_x_at) / Fold change /veh BIN1 (11741810_x_at) / RFU WNT11 (11732464_a_at) / Fold change /veh WNT11 (11732464_a_at) / RFU C10orf10 (11716521_a_at) / Fold change /veh C10orf10 (11716521_a_at) / RFU C5orf56 (11738089_at) / Fold change /veh C5orf56 (11738089_at) / RFU CYB561 (11721691_x_at) / Fold change /veh CYB561 (11721691_x_at) / RFU ANKRD19P (11752326_a_at) / Fold change /veh ANKRD19P (11752326_a_at) / RFU OR2T12 /// OR2T33 /// OR2T8 (11738714_s_at) / Fold change /veh OR2T12 /// OR2T33 /// OR2T8 (11738714_s_at) / RFU VCAN (11748164_a_at) / Fold change /veh VCAN (11748164_a_at) / RFU JSRP1 (11732532_at) / Fold change /veh JSRP1 (11732532_at) / RFU KRTAP10-11 (11738290_x_at) / Fold change /veh KRTAP10-11 (11738290_x_at) / RFU MYO3A (11730013_a_at) / Fold change /veh MYO3A (11730013_a_at) / RFU EBF3 (11725865_a_at) / Fold change /veh EBF3 (11725865_a_at) / RFU CAMK2N1 (11719241_x_at) / Fold change /veh CAMK2N1 (11719241_x_at) / RFU C5orf56 (11738088_a_at) / Fold change /veh C5orf56 (11738088_a_at) / RFU OLFML3 (11715873_a_at) / Fold change /veh OLFML3 (11715873_a_at) / RFU LOC100653217 /// NTM (11731650_a_at) / Fold change /veh LOC100653217 /// NTM (11731650_a_at) / RFU MAPK11 (11762145_a_at) / Fold change /veh MAPK11 (11762145_a_at) / RFU FIZ1 (11724087_x_at) / Fold change /veh FIZ1 (11724087_x_at) / RFU OASL (11726364_x_at) / Fold change /veh OASL (11726364_x_at) / RFU SOX15 (11748057_x_at) / Fold change /veh SOX15 (11748057_x_at) / RFU CD79A (11719716_a_at) / Fold change /veh CD79A (11719716_a_at) / RFU HIST1H1D (11736915_at) / Fold change /veh HIST1H1D (11736915_at) / RFU CASKIN2 (11723855_a_at) / Fold change /veh CASKIN2 (11723855_a_at) / RFU LOC730098 (11760151_x_at) / Fold change /veh LOC730098 (11760151_x_at) / RFU OR4N2 (11742367_at) / Fold change /veh OR4N2 (11742367_at) / RFU PRRT2 (11749266_a_at) / Fold change /veh PRRT2 (11749266_a_at) / RFU SNX32 (11753110_a_at) / Fold change /veh SNX32 (11753110_a_at) / RFU CDHR5 (11726645_a_at) / Fold change /veh CDHR5 (11726645_a_at) / RFU RCAN1 (11760418_a_at) / Fold change /veh RCAN1 (11760418_a_at) / RFU FAM167A (11723789_a_at) / Fold change /veh FAM167A (11723789_a_at) / RFU FAM26E (11764081_at) / Fold change /veh FAM26E (11764081_at) / RFU ISYNA1 (11749810_s_at) / Fold change /veh ISYNA1 (11749810_s_at) / RFU ACY1 (11761880_at) / Fold change /veh ACY1 (11761880_at) / RFU 11764098_at / Fold change /veh 11764098_at / RFU SAMD14 (11745864_x_at) / Fold change /veh SAMD14 (11745864_x_at) / RFU NPB (11741838_a_at) / Fold change /veh NPB (11741838_a_at) / RFU TMPRSS6 (11731388_a_at) / Fold change /veh TMPRSS6 (11731388_a_at) / RFU KRTAP10-2 (11738614_at) / Fold change /veh KRTAP10-2 (11738614_at) / RFU ARHGAP8 /// PRR5-ARHGAP8 (11727945_x_at) / Fold change /veh ARHGAP8 /// PRR5-ARHGAP8 (11727945_x_at) / RFU KRTAP5-7 /// NADSYN1 (11734609_at) / Fold change /veh KRTAP5-7 /// NADSYN1 (11734609_at) / RFU RASL12 (11751679_a_at) / Fold change /veh RASL12 (11751679_a_at) / RFU CDKN2B (11736163_a_at) / Fold change /veh CDKN2B (11736163_a_at) / RFU PRF1 (11729649_at) / Fold change /veh PRF1 (11729649_at) / RFU, ZNF638 /// ZNF638-IT1 / Fold change vs veh, ZNF638 /// ZNF638-IT1 / RFU, PANK3 / Fold change vs veh, PANK3 / RFU, SH3YL1 / Fold change vs veh, SH3YL1 / RFU, ZEB2 / Fold change vs veh, ZEB2 / RFU, NRIP1 / Fold change vs veh, NRIP1 / RFU, PTTG1IP / Fold change vs veh, PTTG1IP / RFU, CAPN2 / Fold change vs veh, CAPN2 / RFU, MED14 / Fold change vs veh, MED14 / RFU, SNORA58 / Fold change vs veh, SNORA58 / RFU, C1orf63 / Fold change vs veh, C1orf63 / RFU, LRRFIP1 / Fold change vs veh, LRRFIP1 / RFU, NDUFAF7 / Fold change vs veh, NDUFAF7 / RFU, SLC12A2 / Fold change vs veh, SLC12A2 / RFU, IBTK / Fold change vs veh, IBTK / RFU, ESF1 / Fold change vs veh, ESF1 / Fold change vs veh, TMEM50B / RFU, TAOK1 / Fold change vs veh, TAOK1 / RFU, ACBD3 / Fold change vs veh, ACBD3 / RFU, TMA16 / Fold change vs veh, TMA16 / RFU, RWDD3 / Fold change vs veh, RWDD3 / RFU, BCAT1 / Fold change vs veh, BCAT1 / RFU, EDEM3 / Fold change vs veh, EDEM3 / RFU, TMEM33 / Fold change vs veh, TMEM33 / RFU, WDR75 / Fold change vs veh, WDR75 / RFU, AHCTF1 / Fold change vs veh, AHCTF1 / RFU, TFRC / Fold change vs veh, TFRC / RFU, ZDHHC17 / Fold change vs veh, ZDHHC17 / RFU, NOM1 / Fold change vs veh, NOM1 / RFU, ARL8B / Fold change vs veh, ARL8B / RFU, ZBTB11 / Fold change vs veh, ZBTB11 / RFU, TAMM41 / Fold change vs veh, TAMM41 / RFU, KIAA1704 /// LOC100996395 / Fold change vs veh, KIAA1704 /// LOC100996395 / RFU, ING1 / Fold change vs veh, ING1 / RFU, TRMT61B / Fold change vs veh, TRMT61B / RFU, FUBP3 / Fold change vs veh, FUBP3 / RFU, TP53 / Fold change vs veh, TP53 / RFU, TNKS2 / Fold change vs veh, TNKS2 / RFU, ZFP14 / Fold change vs veh, ZFP14 / RFU, ACTR2 / Fold change vs veh, ACTR2 / RFU, PPP3R1 / Fold change vs veh, PPP3R1 / RFU, PIK3R1 / Fold change vs veh, PIK3R1 / RFU, HNRNPA1 / Fold change vs veh, HNRNPA1 / RFU, RNF170 / Fold change vs veh, RNF170 / RFU, ZNF28 / Fold change vs veh, ZNF28 / RFU, RNGTT / Fold change vs veh, RNGTT / RFU, OGT / Fold change vs veh, OGT / RFU, BRD1 / Fold change vs veh, BRD1 / RFU, MARS / Fold change vs veh, MARS / RFU, ZNF655 / Fold change vs veh, ZNF655 / RFU, FAHD1 / Fold change vs veh, FAHD1 / RFU, BDP1 / Fold change vs veh, BDP1 / RFU, LRRCC1 / Fold change vs veh, LRRCC1 / RFU, ARID1A / Fold change vs veh, ARID1A / RFU, ZNF146 / Fold change vs veh, ZNF146 / RFU, ZNF330 / Fold change vs veh, ZNF330 / RFU, GPN3 / Fold change vs veh, GPN3 / RFU, C9orf123 / Fold change vs veh, C9orf123 / RFU, N4BP2L2 / Fold change vs veh, N4BP2L2 / RFU, ARFIP1 / Fold change vs veh, ARFIP1 / RFU, FAM179B / Fold change vs veh, FAM179B / RFU, BCL10 / Fold change vs veh, BCL10 / RFU, UHRF1BP1L / Fold change vs veh, UHRF1BP1L / RFU, BET1 / Fold change vs veh, BET1 / RFU, CNOT2 / Fold change vs veh, CNOT2 / RFU, ZNF268 / Fold change vs veh, ZNF268 / Fold change vs veh, ZNF507 / RFU, DGCR2 / Fold change vs veh, DGCR2 / RFU, WDSUB1 / Fold change vs veh, WDSUB1 / Fold change vs veh, HSP90B1 /// MIR3652 / RFU, ADSS / Fold change vs veh, ADSS / RFU, GK / Fold change vs veh, GK / RFU, ZNF148 / Fold change vs veh, ZNF148 / RFU, TAF9 / Fold change vs veh, TAF9 / RFU, SLC1A5 / Fold change vs veh, SLC1A5 / RFU, SLMO2 / Fold change vs veh, SLMO2 / RFU, ABCC4 / Fold change vs veh, ABCC4 / RFU, LOC101060439 /// RAP1B / Fold change vs veh, LOC101060439 /// RAP1B / RFU, RFX7 / Fold change vs veh, RFX7 / RFU, GTPBP10 / Fold change vs veh, GTPBP10 / RFU, CNEP1R1 / Fold change vs veh, CNEP1R1 / RFU, BIVM-ERCC5 /// ERCC5 / Fold change vs veh, BIVM-ERCC5 /// ERCC5 / RFU, ILF3 / Fold change vs veh, ILF3 / RFU 11762660_at / Fold change /veh 11762660_at / RFU VCAN (11757783_s_at) / Fold change /veh VCAN (11757783_s_at) / RFU DDX43 (11728927_at) / Fold change /veh DDX43 (11728927_at) / RFU KRT8 (11758188_x_at) / Fold change /veh KRT8 (11758188_x_at) / RFU NKD1 (11759106_at) / Fold change /veh NKD1 (11759106_at) / RFU SRD5A1 (11742802_a_at) / Fold change /veh SRD5A1 (11742802_a_at) / RFU TPSAB1 /// TPSB2 (11721975_s_at) / Fold change /veh TPSAB1 /// TPSB2 (11721975_s_at) / RFU GSTM3 (11746129_a_at) / Fold change /veh GSTM3 (11746129_a_at) / RFU IL23R (11737362_x_at) / Fold change /veh IL23R (11737362_x_at) / RFU TMEM51 (11727254_a_at) / Fold change /veh TMEM51 (11727254_a_at) / RFU PIWIL2 (11732686_x_at) / Fold change /veh PIWIL2 (11732686_x_at) / RFU ORM1 (11744905_x_at) / Fold change /veh ORM1 (11744905_x_at) / RFU CCDC152 (11743942_at) / Fold change /veh CCDC152 (11743942_at) / RFU ECM1 (11717891_a_at) / Fold change /veh ECM1 (11717891_a_at) / RFU IL23R (11748794_a_at) / Fold change /veh IL23R (11748794_a_at) / RFU TNFAIP8L3 (11732012_x_at) / Fold change /veh TNFAIP8L3 (11732012_x_at) / RFU MBOAT4 (11741988_at) / Fold change /veh MBOAT4 (11741988_at) / RFU 11764193_at / Fold change /veh 11764193_at / RFU TMEM53 (11763286_at) / Fold change /veh TMEM53 (11763286_at) / RFU MAGEB2 (11727129_at) / Fold change /veh MAGEB2 (11727129_at) / RFU TMEM200A (11744735_a_at) / Fold change /veh TMEM200A (11744735_a_at) / RFU CCDC152 (11751479_a_at) / Fold change /veh CCDC152 (11751479_a_at) / RFU FAM211A (11726209_a_at) / Fold change /veh FAM211A (11726209_a_at) / RFU RGS16 (11746705_a_at) / Fold change /veh RGS16 (11746705_a_at) / RFU VCAN (11755009_s_at) / Fold change /veh VCAN (11755009_s_at) / RFU RHOB (11743442_s_at) / Fold change /veh RHOB (11743442_s_at) / RFU RGS16 (11720943_a_at) / Fold change /veh RGS16 (11720943_a_at) / RFU RGS16 (11720944_at) / Fold change /veh RGS16 (11720944_at) / RFU, VPS4B / Fold change vs veh, VPS4B / RFU, CREB1 / Fold change vs veh, CREB1 / RFU, DNAJC13 / Fold change vs veh, DNAJC13 / RFU, GNAQ / Fold change vs veh, GNAQ / RFU, CDK5R1 / Fold change vs veh, CDK5R1 / RFU, ZRANB3 / Fold change vs veh, ZRANB3 / RFU, CUL4A / Fold change vs veh, CUL4A / RFU, CCNY / Fold change vs veh, CCNY / RFU, UFL1 / Fold change vs veh, UFL1 / RFU, COG3 / Fold change vs veh, COG3 / RFU, DIAPH2 / Fold change vs veh, DIAPH2 / RFU, SKA2 / Fold change vs veh, SKA2 / RFU, AFF3 / Fold change vs veh, AFF3 / RFU, LMF1 / Fold change vs veh, LMF1 / RFU, IPO11 / Fold change vs veh, IPO11 / RFU, DFFB / Fold change vs veh, DFFB / RFU, FOXP1 / Fold change vs veh, FOXP1 / RFU, CARD8 / Fold change vs veh, CARD8 / RFU, STRN3 / Fold change vs veh, STRN3 / RFU, ADK / Fold change vs veh, ADK / RFU, RASSF2 / Fold change vs veh, RASSF2 / RFU, WIPF1 / Fold change vs veh, WIPF1 / RFU, LARP1B / Fold change vs veh, LARP1B / RFU, RASA1 / Fold change vs veh, RASA1 / RFU, RB1 / Fold change vs veh, RB1 / RFU, PPFIA1 / Fold change vs veh, PPFIA1 / RFU, MAT2A / Fold change vs veh, MAT2A / RFU, CCT5 / Fold change vs veh, CCT5 / RFU, WDR92 / Fold change vs veh, WDR92 / RFU, CUX1 / Fold change vs veh, CUX1 / RFU, TTC7A / Fold change vs veh, TTC7A / RFU, TMEM135 / Fold change vs veh, TMEM135 / RFU, DEPTOR / Fold change vs veh, DEPTOR / RFU, CPM / Fold change vs veh, CPM / RFU, DNAJB6 / Fold change vs veh, DNAJB6 / RFU, CACNA2D3 / Fold change vs veh, CACNA2D3 / RFU, DTX4 / Fold change vs veh, DTX4 / RFU, TFCP2 / Fold change vs veh, TFCP2 / RFU, GMCL1 /// GMCL1P1 / Fold change vs veh, GMCL1 /// GMCL1P1 / RFU, AEBP2 / Fold change vs veh, AEBP2 / RFU, SNHG1 /// SNORD22 /// SNORD25 /// SNORD26 /// SNORD27 /// SNORD28 /// SNORD29 /// SNORD31 / Fold change vs veh, SNHG1 /// SNORD22 /// SNORD25 /// SNORD26 /// SNORD27 /// SNORD28 /// SNORD29 /// SNORD31 / Fold change (Aza/veh), C12orf56 (ProbeSet 11735607_a_at) / Fold change (ACY-1035/veh), C12orf56 (ProbeSet 11735607_a_at) / Fold change (Aza/veh), FGFR1OP (ProbeSet 11751329_s_at) / Fold change (ACY-1035/veh), FGFR1OP (ProbeSet 11751329_s_at) / Fold change (Aza/veh), VPS36 (ProbeSet 11739960_a_at) / Fold change (ACY-1035/veh), VPS36 (ProbeSet 11739960_a_at) / RFU SYPL1 (11715823_x_at) / Fold change /veh SYPL1 (11715823_x_at) / RFU IGFBP7 (11715501_s_at) / Fold change /veh IGFBP7 (11715501_s_at) / RFU REEP3 (11722064_at) / Fold change /veh REEP3 (11722064_at) / RFU IGLL1 (11728026_x_at) / Fold change /veh IGLL1 (11728026_x_at): dose or concentration left out as unconfirmed
Conditions: MV-4-11 cells, 48 hours

Structure (SMILES): Nc1ccc(-c2cccs2)cc1NC(=O)c1ccc2c(c1)cc(C1CC1)n2CCN1CCOCC1 [ACY-1035]
- RFU LOC100653217 /// NTM (11731650_a_at): 9.86 RFU
